{
  "source": "patent US12138256B2",
  "about": "“Treatment of cardiopulmonary disorders” (Bayer Aktiengesellschaft, priority 2021, dated 2024)",
  "key": {"[1]": {"test_system": "pulmonary vascular resistance (PVR)", "conditions": "inhaled, patients; cited from earlier work"}, "[2]": {"test_system": "thromboxane analog U46619 induced PAH in minipigs", "experiment": "Haemodynamics (PAP, BP) in the anesthetized thromboxane challenged PAH minipig after inhaled (nebulized) application (C-2.1)", "format": "in vivo, Göttingen minipig", "conditions": "inhaled; Ventavis 10 μg/kg nominal dose; comparative example 11 10, 30 and 100 μg/kg nominal dose; 240 min observation interval", "in_short": "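Anesthetized, ventilated Göttingen minipigs (2-6 kg) given continuous infusion (0.3-0.75 μg/kg/min) to raise mean PAP above 25 mmHg, dosing starting after a 30 min plateau. Compound in 1% DMSO/0.2% citric acid, pH 8, nebulized via Aeroneb Pro into the inspiratory arm (~7 min; stock 300 μg/kg). PAP by Swan-Ganz catheter, BP via carotid catheter.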"}, "[3]": {"test_system": "thromboxane analog U46619 induced PAH in minipigs with ODQ or L-NAME pretreatment", "experiment": "PAH minipig model under oxidative stress / low NO (pretreatment by ODQ or L-NAME)", "format": "in vivo, Göttingen minipig", "set-up": "PAP / BP: unit not given beside the values", "conditions": "for BP / PAP: Ventavis 10 μg/kg nominal dose inhaled", "protocol": "To simulate conditions of oxidative stress or low NO concentrations as assumed to be present in different cardiovascular disorders, comparative example 11 was evaluated with and without pretreatment by ODQ (inhibitor of sGC) or L-NAME (NOS inhibitor). […] In contrast, the effects of Ventavis® under conditions of oxidative stress or low NO concentrations were not enhanced. In addition, also under these pathophysiological conditions the duration of action of comparative example 11 was much longer compared to Ventavis®."}, "[4]": {"test_system": "acetylcholine-induced bronchospasm", "experiment": "Bronchorelaxation in vivo: acetylcholine-induced bronchoconstriction in Brown Norway rats, RL and Cdyn (C-3.2)", "set-up": "species or system rat", "conditions": "inhaled 60 minutes before provocation; tiotropium 1 μg/kg; comparative example 11 1, 10 and 100 μg/kg", "protocol": "The bronchoconstriction model (see Hoymann H G. Lung function measurements in rodents in safety pharmacology studies. Front Pharmacol 2012; 3:156) used Male Brown Norway rats (Charles River, Sulzfeld, Germany; 10-12 weeks old) randomized to three treatment groups (comparative example 11, 1 μg/kg, 10 μg/kg, and 100 μg/kg; n=12-13), one positive control group (tiotropium 1 μg/kg; n=12), and one vehicle control group (n=17). Animals were treated with the inhaled test compounds 60 minutes before provocation. Comparative example 11, vehicle, or tiotropium were aerosolized using a micro feeding system and a dispersion nozzle operated with pressurized air. The aerosol concentration was determined by filter sampling with gravimetrical analysis and monitored continuously by a photometer. The lung-deposited doses were assessed from the inhalation dose (Raabe O G, Al-Bayati M A, Teague S V, Rasolt A. Regional Deposition of Inhaled Monodisperse Coarse and Fine Aerosol Particles in Small Laboratory Animals. The Annals of Occupational Hygiene 1988; 32:53-63.). […] After reaching a steady state in respiration, lung function of the spontaneously breathing animal was recorded as baseline values for ≥2 minutes; amongst other parameters, lung resistance (=RL) and dynamic compliance (=Cdyn) were used to assess bronchoconstriction. […]"}},
  "note": "Values joined by “and” are separate entries in the source; they are usually repeats but may differ in a detail not shown here. Equal entries are not always repeated.",
  "data": [
    {"molecule": "CC#CCC(C)[C@H](O)/C=C/[C@@H]1[C@H]2C/C(=C/CCCC(=O)O)C[C@H]2C[C@H]1O", "note": "(stereo partly shown) [Ventavis, reference compound]", "values": [
      {"measurement": "duration of action on haemodynamics (PVR) in clinical studies", "setting": "[1]", "value": "about 60 min"},
      {"measurement": "duration of action", "setting": "[2]", "value": "about 40 min"},
      {"measurement": "BP", "setting": "[3]; L-NAME pretreatment, Time 70", "value": "105.0 and 133.0 and 125.0"},
      {"measurement": "PAP", "setting": "[3]; L-NAME pretreatment, Time 70", "value": "31.7 and 27.4 and 28.7"},
      {"measurement": "BP", "setting": "[3]; L-NAME pretreatment, Time 80", "value": "106.0 and 131.0 and 123.0"},
      {"measurement": "PAP", "setting": "[3]; L-NAME pretreatment, Time 80", "value": "41.2 and 33.5 and 29.7"},
      {"measurement": "BP", "setting": "[3]; L-NAME pretreatment, Time 90", "value": "102.0 and 124.0 and 121.0"},
      {"measurement": "PAP", "setting": "[3]; L-NAME pretreatment, Time 90", "value": "42.2 and 37.9 and 32.1"},
      {"measurement": "BP", "setting": "[3]; L-NAME pretreatment, Time 100", "value": "101.0 and 124.0 and 117.0"},
      {"measurement": "PAP", "setting": "[3]; L-NAME pretreatment, Time 100", "value": "41.5 and 39.6 and 38.9"},
      {"measurement": "BP", "setting": "[3]; L-NAME pretreatment, Time 110", "value": "101.0 and 125.0 and 114.0"},
      {"measurement": "PAP", "setting": "[3]; L-NAME pretreatment, Time 110", "value": "41.5 and 41.0"},
      {"measurement": "BP", "setting": "[3]; ODQ pretreatment, Time 70", "value": "97.0 and 103.0 and 92.0"},
      {"measurement": "PAP", "setting": "[3]; ODQ pretreatment, Time 70", "value": "33.6 and 26.4 and 25.9"},
      {"measurement": "BP", "setting": "[3]; ODQ pretreatment, Time 80", "value": "98.0 and 105.0 and 92.0"},
      {"measurement": "PAP", "setting": "[3]; ODQ pretreatment, Time 80", "value": "37.4 and 32.8 and 32.1"},
      {"measurement": "BP", "setting": "[3]; ODQ pretreatment, Time 90", "value": "100.0 and 104.0 and 92.0"},
      {"measurement": "PAP", "setting": "[3]; ODQ pretreatment, Time 90", "value": "38.5 and 37.5 and 38.2"},
      {"measurement": "BP", "setting": "[3]; ODQ pretreatment, Time 100", "value": "101.0 and 104.0 and 93.0"},
      {"measurement": "PAP", "setting": "[3]; ODQ pretreatment, Time 100", "value": "38.8 and 40.6 and 39.2"},
      {"measurement": "BP", "setting": "[3]; ODQ pretreatment, Time 110", "value": "103.0 and 94.0"},
      {"measurement": "PAP", "setting": "[3]; ODQ pretreatment, Time 110", "value": "39.3 and 39.5 and 40.0"},
      {"measurement": "BP", "setting": "[3]; without pretreatment, Time 70", "value": "107.0 and 109.0 and 116.0"},
      {"measurement": "PAP", "setting": "[3]; without pretreatment, Time 70", "value": "26.1 and 28.2 and 29.6"},
      {"measurement": "BP", "setting": "[3]; without pretreatment, Time 80", "value": "102.0 and 110.0 and 113.0"},
      {"measurement": "PAP", "setting": "[3]; without pretreatment, Time 80", "value": "34.7 and 36.7 and 37.4"},
      {"measurement": "BP", "setting": "[3]; without pretreatment, Time 90", "value": "99.0 and 109.0 and 111.0"},
      {"measurement": "PAP", "setting": "[3]; without pretreatment, Time 90", "value": "38.9 and 41.2"},
      {"measurement": "BP", "setting": "[3]; without pretreatment, Time 100", "value": "98.0 and 106.0 and 108.0"},
      {"measurement": "PAP", "setting": "[3]; without pretreatment, Time 100", "value": "37.9 and 39.2 and 41.9"},
      {"measurement": "BP", "setting": "[3]; without pretreatment, Time 110", "value": "95.0 and 105.0 and 106.0"},
      {"measurement": "PAP", "setting": "[3]; without pretreatment, Time 110", "value": "38.4 and 39.5 and 42.2"},
      {"measurement": "effect on PAP after pretreatment of ODQ or L-NAME", "setting": "[3]; inhaled, comparative example 11 30 μg/kg ND, Ventavis 10 μg/kg nominal dose", "value": "not enhanced"}
    ]},
    {"molecule": "C[N+]1(C)[C@@H]2C[C@@H](OC(=O)C(O)(c3cccs3)c3cccs3)C[C@H]1[C@@H]1O[C@@H]12", "note": "[tiotropium, reference compound]", "values": [
      {"measurement": "bronchodilatory efficacy (RL)", "setting": "[4]", "value": "inhibited acetylcholine-induced bronchospasm"}
    ]}
  ]
}
